# Test system: penis of a person
# Assay: topical application of the compositions (massage oil) to a person's penis, twice daily
# Assay type: in vivo, human
# Conditions: ingredient as included in the compositions, applied topically to a person's penis as a massage oil
compound,measurement,value
"C=C(C)[C@@H]1CCC(C)=C[C@H]1c1c(O)cc(CCCCC)cc1O [CBD, Cannabidiol]","effect on sexual arousal, performance, libido and penis size",enhances sexual arousal and performance and stamina
